Assay results published in patent US20250302798A1, “STING INHIBITORS AND USE THEREOF” (CARMEL HAIFA UNIVERSITY ECONOMIC CORPORATION LTD., priority 2022, published 2025).
Entries after “also recorded” stand apart in the source; their conditions may differ.

How the values were obtained:
STING-IFN-β axis = assay: Zymosan A peritonitis in vivo, macrophage cytokines and STING pathway Western blotting; set-up: species or system mice; details: 50 μM compound, 100 μl/mouse
Experimental: FIGS. 6A-6D include graphs and an image showing that compound 2.1 activates in vivo the STING-IFN-β axis and enhances biased cytokine production by macrophages. Mice were injected with zymosan A for 66 h. Twenty-four 24 post peritonitis initiation (PPI) the mice were injected with DMSO (0.4%), 4 mg/kg DMXAA or 50 μM compound 2.1 (100 μl/mouse). Macrophages were collected from the spleen (6A-6C), or peritoneum (6D) and incubated for 24 h with LPS (1 μg/ml) or vehicle (6A-6C) or lysed and analyzed by Western blotting immediately for the STING pathway (6D). Culture supernatants from incubated macrophages were analyzed by ELISA for the secretion of TNFα (6A), IL-10 (6B), and IL-6 (6C). Results are mean±SEM of 3 experiments (6A-6C) or representative blots. One-way ANOVA, and Tukey HSD test * P≤0.05, ** P≤0.01.

STING = biological target: T1, STING (Mus musculus, UniProt Q3TBT3); assay: Cytokine secretion (ELISA) from DMXAA-activated splenocytes; assay type: cell-based, C57BL/6 mice; set-up: Splenocytes were recovered from C57BL/6 WT female mice; endogenous in cells; host or cells: primary splenocytes of C57BL/6 mice
T1 sequence (Q3TBT3 1-378): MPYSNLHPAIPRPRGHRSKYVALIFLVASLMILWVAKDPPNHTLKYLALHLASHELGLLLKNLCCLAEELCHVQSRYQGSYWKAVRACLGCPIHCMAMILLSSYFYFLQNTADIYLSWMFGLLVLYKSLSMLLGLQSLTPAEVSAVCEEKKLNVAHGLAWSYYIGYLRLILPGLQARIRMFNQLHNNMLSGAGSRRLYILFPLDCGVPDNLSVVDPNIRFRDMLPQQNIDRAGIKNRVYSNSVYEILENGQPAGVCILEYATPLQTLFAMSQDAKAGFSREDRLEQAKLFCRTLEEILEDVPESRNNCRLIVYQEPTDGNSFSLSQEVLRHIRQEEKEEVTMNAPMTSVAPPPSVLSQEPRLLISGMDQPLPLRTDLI
Experimental: FIGS. 1A-1B include bar graphs showing that Cluster 1 and 9 inhibit tumor necrosis factor alpha (TNFα) while only cluster 1 promotes IL-10 secretion from resting splenocytes activated by the selective STING agonist DMXAA. Splenocytes were recovered from C57BL/6 WT or STING^−/− female mice and were incubated (1×10^6 cells in 0.5 mL of culture media) overnight with a premade mixture of the individual compounds in each cluster (5-500 nM) or vehicle, and DMXAA (10 μM). Next, culture supernatants were collected and TNFα(1A) or IL-10 (1B) levels were determined by standard enzyme-linked immunosorbent assay ELISA (Biolegend).
FIGS. 2A-2D include graphs showing that compounds 5.9 and 7.9 inhibit TNFα and IL-10 secretion from DMXAA-activated splenocytes. Splenocytes were recovered from C57BL/6 WT female mice and incubated (1×10^6 cells in 0.5 mL of culture media) overnight with the individual compounds from cluster 9 (50-5,000 nM) or vehicle and DMXAA (5-10 μM; 2A-2B) or at 5,000 nM without DMXAA (2C-2D). Next, culture supernatants were collected and TNFα (2A, and 2C) or IL-10 (2B, and 2D) levels were determined by standard ELISA. In 2A-2B, black horizontal line indicates secretion level from vehicle-treated cells.
FIGS. 3A-3H include graphs and an image showing that compounds 2.1, 4.1, and 6.1 inhibit TNFα but promote IL-10 and IFN-beta secretion from DMXAA-activated splenocytes. Splenocytes were recovered from C57BL/6 WT female mice and incubated (1×10^6 cells in 0.5 mL of culture media) overnight with the individual compounds from cluster 1 (50-5,000 nM) or vehicle and DMXAA (10 μM; 3A, 3C, and 3E) or at 5,000 nM without DMXAA (3B, 3D, and 3F). Next, culture supernatants were collected and TNFα (3A-3B), IL-10 (3C-3D), or IFN-beta (3E-3F) levels were determined by standard ELISA. In 3A, 3C, and 3E, black horizontal line indicates secretion level from vehicle-treated cells. (3G-3H) Biased STING agonists (BiSTs) enhance DMXAA-induced STING signaling. Splenocytes were treated with 25 μg/ml DMXAA and 50 nM of compound 2.1 for 1-4 hr (3G). Then, the cells were analyzed by immunoblotting for phosphorylated STING, TBK-1, IRF3, and NF-kB, or their unphosphorylated controls, or actin as a loading control. Densitometry analysis for phosphorylated STING (p-STING) and STING proteins (3H) is also shown. Results are representative (3G) or mean±SEM (3H) from 3 repeats. One-way ANOVA, and Tukey HSD test *P<0.05.
Splenocytes were isolated from the spleens of unchallenged C57BL/6 WT or STING-KO mice by meshing against a grid. Peritoneal macrophages were isolated from mice undergoing peritonitis for 66 hr by washing with 5 ml PBS. The cellular exudate was stained with phycoerythrin (PE)-conjugated anti-F4/80 antibodies (bioLegend, CA, USA) and macrophages were isolated using magnetic beads (STEMCELL Technologies Inc, Vancouver, Canada). Isolated splenocytes or macrophages (0.5-1×10^6 cells per well) were incubated with 50-5,000 nM of individual substances or pooled clusters thereof. Then, the cells were treated with vehicle or 5-10 μM DMXAA (Cayman Chemical, MI, USA) to activate STING. After 24 hr, culture supernatants were collected and evaluated for levels of: TNFα, IFN-β and/or IL-10 using, standard ELISA (BioLegend, CA, USA).
To test which cluster(s) included compounds that modulate STING-mediated cytokine production, wild-type (WT) or STING knockout (−/−) splenocytes were incubated with the selective murine STING agonist DMXAA alone or with 5-500 nM of the pooled individual compounds in each cluster as indicated.
Next, the individual compounds in clusters 1 and 9 were tested at 50-5,000 nM. The first experiment was performed in resting splenocytes as detailed above.

[1] = individual compounds 50-5,000 nM + DMXAA 5-10 μM, overnight

## c1ccc(CSc2nnc(CCCCCCCCc3nnc(SCc4ccccc4)o3)o2)cc1 [Compound 2.1, 2-(benzylsulfanyl)-5-{8-[5-(benzylsulfanyl)-1,3,4-oxadiazol-2-yl]octyl}-1,3,4-oxadiazole]
STING-IFN-β axis; 24 h post peritonitis initiation, peritoneal macrophages
  STING-IFN-β axis in vivo: activates
STING-IFN-β axis; spleen macrophages ex vivo ± LPS 1 μg/ml 24 h
  Biased cytokine production by macrophages (TNFα, IL-10, IL-6): enhances
STING; at 5,000 nM, resting splenocytes
  STING inhibition (ranking): Best STING Inhibitors
STING; individual compounds 50-5,000 nM + DMXAA 10 μM, overnight
  IFN-beta secretion: most potent inducer; also recorded: promote
STING; [1]
  IL-10 secretion: most potent inducer; also recorded: promote
  TNFα secretion: doing so at lower concentrations; also recorded: inhibit
STING; summary over various cell types, DMXAA stimulation
  Mode of action on STING (overall): biased agonists
